Measured values published in patent US12252469B2, “Crystalline forms of (E)-N-hydroxy-3-(1-(phenylsulfonyl)indolin-5-yl)acrylamide” (ANBOGEN THERAPEUTICS INC., priority 2023, dated 2025).

Experiments:
[1] = Accelerated stability test of Type A powder; assay type: physicochemical; details: 40±2° C./75±5% RH
Description: (§1) Furthermore, a long-term stability test and an accelerated stability test of Type A (in the form of powder) are executed, and the results thereof are shown in Table 19 and Table 20, respectively. More specifically, for the long-term stability test, the packaging and storage condition: package in double PE bags with silica gel in an aluminum bag and in a paper drum; sample quantity: 0.6 g; temperature: 25±2° C.; % relative humidity: 60±5%; frequency of analysis: 0, 1, 2, 3, 6, 9, 12, 18, 24, 36, 48 and 60 months; duration: 60 months. As for the accelerated stability test, the packaging and storage condition: package in double PE bags with silica gel in an aluminum bag and in a paper drum; sample quantity: 0.6 g; temperature: 40±2° C.; % relative humidity: 75±5%; frequency of analysis: 0, 1, 2, 3 and 6 months; duration: 6 months.

[2] = Solid stability evaluation for 1/2/4 weeks;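 note: Solid-state physical and chemical stability tracked by XRPD for form, KF for water content, and HPLC for purity and assay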
Description: Type A/B were stored under the conditions of 60° C., 25° C./60% RH, 25° C./92.5% RH and 40° C./75% RH for 1/2/4 weeks for solid stability evaluation. Amorphous was stored under the conditions of 25° C./60% RH and 40° C./75% RH for 1/2/4 weeks for solid stability evaluation. The physical and chemical stability were evaluated by X-ray powder diffraction (XRPD), thermo gravimetric analysis (TGA)/Karl Fischer (KF), differential scanning calorimetry (DSC)/modulated differential I scanning calorimetry (mDSC), high performance liquid chromatography (HPLC) purity and assay, respectively.
XRPD, TGA, DSC and KF in this example are under the same conditions with those described in Example 2.
Agilent 1260 were utilized and detailed chromatographic conditions are listed in

[3] = Heating experiment of Type A (XRPD); assay type: physicochemical
[4] = Long-term stability test of Type A powder; assay type: physicochemical; details: 25±2° C./60±5% RH
Description: as §1

[5] = all storage conditions, 4 weeks

Appearance ([1]; 0 months): Pale white powder | Assay (HPLC) (98.0%~102.0%) (anhydrous basis) ([1]; 0 months): 101.6% | Related substance (HPLC) ABT-301 dimer (NMT 0.5%) ([1]; 0 months): 0.03 a/a % | Related substance (HPLC) Individual unknown Impurity (NMT 0.4%) ([1]; 0 months): 0.03% | Related substance (HPLC) Total Impurities (NMT 1.0%) ([1]; 0 months): 0.08% | Water content (KF) (NMT 4.0%) ([1]; 0 months): 2.6% | Appearance ([1]; 1 month): Pale white powder | Assay (HPLC) (98.0%~102.0%) (anhydrous basis) ([1]; 1 month): 100.2% | Related substance (HPLC) ABT-301 dimer (NMT 0.5%) ([1]; 1 month): 0.03 a/a % | Related substance (HPLC) Individual unknown Impurity (NMT 0.4%) ([1]; 1 month): 0.05% | Related substance (HPLC) Total Impurities (NMT 1.0%) ([1]; 1 month): 0.12% | Water content (KF) (NMT 4.0%) ([1]; 1 month): 2.6% | Appearance ([1]; 2 months): Pale white powder | Assay (HPLC) (98.0%~102.0%) (anhydrous basis) ([1]; 2 months): 101.2% | Related substance (HPLC) ABT-301 dimer (NMT 0.5%) ([1]; 2 months): 0.03 a/a % | Related substance (HPLC) Individual unknown Impurity (NMT 0.4%) ([1]; 2 months): 0.03% | Related substance (HPLC) Total Impurities (NMT 1.0%) ([1]; 2 months): 0.09% | Water content (KF) (NMT 4.0%) ([1]; 2 months): 2.6% | Appearance ([1]; 3 months): Pale white powder | Assay (HPLC) (98.0%~102.0%) (anhydrous basis) ([1]; 3 months): 101.8% | Related substance (HPLC) ABT-301 dimer (NMT 0.5%) ([1]; 3 months): 0.03 a/a % | Related substance (HPLC) Individual unknown Impurity (NMT 0.4%) ([1]; 3 months): 0.06% | Related substance (HPLC) Total Impurities (NMT 1.0%) ([1]; 3 months): 0.11% | Water content (KF) (NMT 4.0%) ([1]; 3 months): 2.6% | Appearance ([1]; 6 months): Pale white powder | Assay (HPLC) (98.0%~102.0%) (anhydrous basis) ([1]; 6 months): 99.8% | Related substance (HPLC) ABT-301 dimer (NMT 0.5%) ([1]; 6 months): 0.03 a/a % | Related substance (HPLC) Individual unknown Impurity (NMT 0.4%) ([1]; 6 months): 0.06% | Related substance (HPLC) Total Impurities (NMT 1.0%) ([1]; 6 months): 0.13% | Water content (KF) (NMT 4.0%) ([1]; 6 months): 2.6% | Assay ([2]; 25° C./60% RH, 1 week): 96.4% | Form (XRPD) ([2]; 25° C./60% RH, 1 week): Type A | HPLC purity ([2]; 25° C./60% RH, 1 week): 99.85 Area % | Assay ([2]; 25° C./60% RH, 2 weeks): 94.7% | Form (XRPD) ([2]; 25° C./60% RH, 2 weeks): Type A | HPLC purity ([2]; 25° C./60% RH, 2 weeks): 99.83 Area % | Assay ([2]; 25° C./60% RH, 4 weeks): 96.4% | Form (XRPD) ([2]; 25° C./60% RH, 4 weeks): Type A | HPLC purity ([2]; 25° C./60% RH, 4 weeks): 99.84 Area % | KF (water content) ([2]; 25° C./60% RH, 4 weeks): 2.8030% | Assay ([2]; 40° C./75% RH, 1 week): 96.6% | Form (XRPD) ([2]; 40° C./75% RH, 1 week): Type A | HPLC purity ([2]; 40° C./75% RH, 1 week): 99.84 Area % | Assay ([2]; 40° C./75% RH, 2 weeks): 95.6% | Form (XRPD) ([2]; 40° C./75% RH, 2 weeks): Type A | HPLC purity ([2]; 40° C./75% RH, 2 weeks): 99.84 Area % | Assay ([2]; 40° C./75% RH, 4 weeks): 96.1% | Form (XRPD) ([2]; 40° C./75% RH, 4 weeks): Type A | HPLC purity ([2]; 40° C./75% RH, 4 weeks): 99.85 Area % | KF (water content) ([2]; 40° C./75% RH, 4 weeks): 4.1509% | Assay ([2]; 60° C., 1 week): 96.2% | Form (XRPD) ([2]; 60° C., 1 week): Type A | HPLC purity ([2]; 60° C., 1 week): 99.83 Area % | Assay ([2]; 60° C., 2 weeks): 95.0% | Form (XRPD) ([2]; 60° C., 2 weeks): Type A | HPLC purity ([2]; 60° C., 2 weeks): 99.76 Area % | Assay ([2]; 60° C., 4 weeks): 95.7% | Form (XRPD) ([2]; 60° C., 4 weeks): Type A | HPLC purity ([2]; 60° C., 4 weeks): 99.82 Area % | KF (water content) ([2]; 60° C., 4 weeks): 4.3786% | Assay ([2]; Initial): 95.6% | Form (XRPD) ([2]; Initial): Type A | HPLC purity ([2]; Initial): 99.84 Area % | KF (water content) ([2]; Initial): 2.8220% | Assay ([2]; […], 1 week): 96.3% | Form (XRPD) ([2]; […], 1 week): Type A | HPLC purity ([2]; […], 1 week): 99.85 Area % | Assay ([2]; […], 2 weeks): 95.6% | Form (XRPD) ([2]; […], 2 weeks): Type A | HPLC purity ([2]; […], 2 weeks): 99.84 Area % | Assay ([2]; […], 4 weeks): 96.5% | Form (XRPD) ([2]; […], 4 weeks): Type A | HPLC purity ([2]; […], 4 weeks): 99.85 Area % | KF (water content) ([2]; […], 4 weeks): 3.1154% | form change after solid stability [2, 5]: no form change | form after heating (XRPD) ([3]; heated to 100° C. and cooled to RT): no form change | form after heating (XRPD) ([3]; heated to 122° C./130° C. and cooled to RT): converted to a new form, named as Type B | Appearance ([4]; 0 months): Pale white powder | Assay (HPLC) (98.0%~102.0%) (anhydrous basis) ([4]; 0 months): 101.6% | Related substance (HPLC) ABT-301 dimer (NMT 0.5%) ([4]; 0 months): 0 a/a % | Related substance (HPLC) Individual unknown Impurity (NMT 0.4%) ([4]; 0 months): 0.03% | Related substance (HPLC) Total Impurities (NMT 1.0%) ([4]; 0 months): 0.1% | Water content (KF) (NMT 4.0%) ([4]; 0 months): 2.6% | Appearance ([4]; 1 month): Pale white powder | Assay (HPLC) (98.0%~102.0%) (anhydrous basis) ([4]; 1 month): 100.3% | Related substance (HPLC) ABT-301 dimer (NMT 0.5%) ([4]; 1 month): 0 a/a % | Related substance (HPLC) Individual unknown Impurity (NMT 0.4%) ([4]; 1 month): 0.05% | Related substance (HPLC) Total Impurities (NMT 1.0%) ([4]; 1 month): 0.1% | Water content (KF) (NMT 4.0%) ([4]; 1 month): 2.6% | Appearance ([4]; 2 months): Pale white powder | Assay (HPLC) (98.0%~102.0%) (anhydrous basis) ([4]; 2 months): 100.6% | Related substance (HPLC) ABT-301 dimer (NMT 0.5%) ([4]; 2 months): 0 a/a % | Related substance (HPLC) Individual unknown Impurity (NMT 0.4%) ([4]; 2 months): 0.05% | Related substance (HPLC) Total Impurities (NMT 1.0%) ([4]; 2 months): 0.1% | Water content (KF) (NMT 4.0%) ([4]; 2 months): 2.6% | Appearance ([4]; 3 months): Pale white powder | Assay (HPLC) (98.0%~102.0%) (anhydrous basis) ([4]; 3 months): 101.4% | Related substance (HPLC) ABT-301 dimer (NMT 0.5%) ([4]; 3 months): 0 a/a % | Related substance (HPLC) Individual unknown Impurity (NMT 0.4%) ([4]; 3 months): 0.07% | Related substance (HPLC) Total Impurities (NMT 1.0%) ([4]; 3 months): 0.1% | Water content (KF) (NMT 4.0%) ([4]; 3 months): 2.6% | Appearance ([4]; 6 months): Pale white powder | Assay (HPLC) (98.0%~102.0%) (anhydrous basis) ([4]; 6 months): 100.2% | Related substance (HPLC) ABT-301 dimer (NMT 0.5%) ([4]; 6 months): 0 a/a % | Related substance (HPLC) Individual unknown Impurity (NMT 0.4%) ([4]; 6 months): 0.05% | Related substance (HPLC) Total Impurities (NMT 1.0%) ([4]; 6 months): 0.1% | Water content (KF) (NMT 4.0%) ([4]; 6 months): 2.6% | Appearance ([4]; 9 months): Pale white powder | Assay (HPLC) (98.0%~102.0%) (anhydrous basis) ([4]; 9 months): 100.6% | Related substance (HPLC) ABT-301 dimer (NMT 0.5%) ([4]; 9 months): 0 a/a % | Related substance (HPLC) Individual unknown Impurity (NMT 0.4%) ([4]; 9 months): 0.06% | Related substance (HPLC) Total Impurities (NMT 1.0%) ([4]; 9 months): 0.1% | Water content (KF) (NMT 4.0%) ([4]; 9 months): 2.9% | Appearance ([4]; 12 months): Pale white powder | Assay (HPLC) (98.0%~102.0%) (anhydrous basis) ([4]; 12 months): 100.4% | Related substance (HPLC) ABT-301 dimer (NMT 0.5%) ([4]; 12 months): 0 a/a % | Related substance (HPLC) Individual unknown Impurity (NMT 0.4%) ([4]; 12 months): 0.09% | Related substance (HPLC) Total Impurities (NMT 1.0%) ([4]; 12 months): 0.2% | Water content (KF) (NMT 4.0%) ([4]; 12 months): 2.6% | Appearance ([4]; 18 months): Pale white powder | Assay (HPLC) (98.0%~102.0%) (anhydrous basis) ([4]; 18 months): 100.0% | Related substance (HPLC) ABT-301 dimer (NMT 0.5%) ([4]; 18 months): 0 a/a % | Related substance (HPLC) Individual unknown Impurity (NMT 0.4%) ([4]; 18 months): 0.07% | Related substance (HPLC) Total Impurities (NMT 1.0%) ([4]; 18 months): 0.1% | Water content (KF) (NMT 4.0%) ([4]; 18 months): 2.8% | Appearance ([4]; 24 months): Pale white powder | Assay (HPLC) (98.0%~102.0%) (anhydrous basis) ([4]; 24 months): 99.8% | Related substance (HPLC) ABT-301 dimer (NMT 0.5%) ([4]; 24 months): 0 a/a % | Related substance (HPLC) Individual unknown Impurity (NMT 0.4%) ([4]; 24 months): 0.03% | Related substance (HPLC) Total Impurities (NMT 1.0%) ([4]; 24 months): 0.1% | Water content (KF) (NMT 4.0%) ([4]; 24 months): 2.7% | Appearance ([4]; 36 months): Pale wlite powder | Assay (HPLC) (98.0%~102.0%) (anhydrous basis) ([4]; 36 months): 100.1% | Related substance (HPLC) ABT-301 dimer (NMT 0.5%) ([4]; 36 months): 0 a/a % | Related substance (HPLC) Individual unknown Impurity (NMT 0.4%) ([4]; 36 months): 0.08% | Related substance (HPLC) Total Impurities (NMT 1.0%) ([4]; 36 months): 0.1% | Water content (KF) (NMT 4.0%) ([4]; 36 months): 2.6% | Appearance ([4]; 48 months): Pale white powder | Assay (HPLC) (98.0%~102.0%) (anhydrous basis) ([4]; 48 months): 100.4% | Related substance (HPLC) ABT-301 dimer (NMT 0.5%) ([4]; 48 months): 0 a/a % | Related substance (HPLC) Individual unknown Impurity (NMT 0.4%) ([4]; 48 months): 0.08% | Related substance (HPLC) Total Impurities (NMT 1.0%) ([4]; 48 months): 0.1% | Water content (KF) (NMT 4.0%) ([4]; 48 months): 2.6% | Appearance ([4]; 60 months): Pale white powder | Assay (HPLC) (98.0%~102.0%) (anhydrous basis) ([4]; 60 months): 100.5% | Related substance (HPLC) Individual unknown Impurity (NMT 0.4%) ([4]; 60 months): 0.08% | Related substance (HPLC) Total Impurities (NMT 1.0%) ([4]; 60 months): 0.1% | Water content (KF) (NMT 4.0%) ([4]; 60 months): 2.6%
SMILES: O=C(/C=C/c1ccc2c(c1)CCN2S(=O)(=O)c1ccccc1)NO [Type A, (E)-N-hydroxy-3-(1-(phenylsulfonyl)indolin-5-yl) acrylamide]
HPLC purity change after solid stability [2, 5]: no form change, or obvious HPLC purity change
